According to US9976141B2, “Compositions and methods for inhibiting gene expression of Hif2alpha” (Arrowhead Madison Inc., priority 2015, dated 2018):

Tested on: human (tumor) Hif2α (EPAS1) mRNA
Assay: Hif2α knockdown in orthotopic RCC tumor bearing mice, single injection of RNAi trigger-delivery polymer conjugate, RT-qPCR (Table 7)
Type: in vivo
Conditions: single tail vein injection, relative to isotonic glucose
How it was run: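 Female athymic nude mice carried orthotopic A498-SEAP ccRCC kidney tumours, used 5–6 weeks after implantation. They received one tail-vein injection of RGD-targeted Hif2α RNAi trigger–polymer conjugate or isotonic glucose. Tumour Hif2α mRNA was measured by TaqMan RT-qPCR normalised to CycA (ΔΔCT) and expressed relative to glucose-treated mice.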

[1] = RNAi trigger 80 μg, polymer 126 400 μg
[2] = RNAi trigger 50 μg, polymer 064 125 μg

AD01033 (antisense TAAGUUAAGCUCCCAUACATT; sense UGUAUGGGAGCUUAACUUAT; Hif2alpha RNAi agent antisense strand; modified_base 2,4,6,8,10,12,14,16,18 /mod_base = “2′-deoxy-2′-fluoro corresponding nucleoside”; modified_base 3,5,9,11,13,15,17,19 /mod_base = “2′-O-methyl corresponding nucleoside”; modified_base 7 /mod_base = “2′-3′ seco corresponding nucleotide”; modified_base 21 /mod_base = “5′-phosphorothioate corresponding nucleotide”; Hif2alpha RNAi agent sense strand; modified_base 1,3,5,7,9,11,13,15,17,19 /mod_base = “2′-deoxy-2′-fluoro corresponding nucleoside”; modified_base 2,4,6,8,10,12,14,16,18 /mod_base = “2′-O-methyl corresponding nucleoside”; modified_b)
Relative Expression day 4 (Hif2α mRNA in kidney tumor) [1]: 1.08

AD01025 (antisense TCUAGCAACAAAACCUUAATT; sense UUAAGGUUUUGUUGCUAGAT; Hif2alpha RNAi agent antisense strand; modified_base 2,4,6,8,10,12,14,16,18 /mod_base = “2′-deoxy-2′-fluoro corresponding nucleoside”; modified_base 3,5,7,9,11,13,15,17,19 /mod_base = “2′-O-methyl corresponding nucleoside”; modified_base 21 /mod_base = “5′-phosphorothioate corresponding nucleotide”; Hif2alpha RNAi agent sense strand; modified_base 1,3,5,7,9,11,13,15,17,19 /mod_base = “2′-deoxy-2′-fluoro corresponding nucleoside”; modified_base 2,4,6,8,10,12,14,16,18 /mod_base = “2′-O-methyl corresponding nucleoside”; modified_base 20 /mod_base = “3′-3′-linked nucleotide”; modified_base 1 /mo)
Relative Expression day 4 (Hif2α mRNA in kidney tumor) [1]: 0.34

AD03187 (antisense UGUAAAACAAUUGUGUACUUU; sense AGUACACAAUUGUUUUACAT; Hif2alpha RNAi agent antisense strand; modified_base 2,4,6,8,10,14,16,18 /mod_base = “2′-deoxy-2′-fluoro corresponding nucleoside”; modified_base 1,3,5,7,9,11,12,13,15,17,19,20,21 /mod_base = “2′-O-methyl corresponding nucleoside”; modified_base 2,3,20,21 /mod_base = “5′-phosphorothioate corresponding nucleotide”; Hif2alpha RNAi agent sense strand; modified_base 3,5,7,8,9,11,13,17 /mod_base = “2′-deoxy-2′-fluoro corresponding nucleoside”; modified_base 1,2,4,6,10,12,14,15,16,18,19 /mod_base = “2′-O-methyl corresponding nucleoside”; modified_base 20 /mod_base = “3′-3′-linked nucleotide”; modi)
Relative Expression day 4 (Hif2α mRNA in kidney tumor) [2]: 1.000

AD01020 (antisense TGUAAAACAAUUGUGUACUTT; sense AGUACACAAUUGUUUUACAT; Hif2alpha RNAi agent antisense strand; modified_base 2,4,8,10,12,14,16,18 /mod_base = “2′-deoxy-2′-fluoro corresponding nucleoside”; modified_base 3,5,7,9,11,13,15,17,19 /mod_base = “2′-O-methyl corresponding nucleoside”; modified_base 6 /mod_base = “2′-3′ seco corresponding nucleotide”; modified_base 21 /mod_base = “5′-phosphorothioate corresponding nucleotide”; Hif2alpha RNAi agent sense strand; modified_base 1,3,5,7,9,11,13,15,17,19 /mod_base = “2′-deoxy-2′-fluoro corresponding nucleoside”; modified_base 2,4,6,8,10,12,14,16,18 /mod_base = “2′-O-methyl corresponding nucleoside”; modified_b)
Relative Expression day 4 (Hif2α mRNA in kidney tumor) [1]: 0.94

AD01655 (antisense TUUCAUGAAAUCGUUACGUTT; sense ACGUAACGAUUUCAUGAAAT; Hif2alpha RNAi agent antisense strand; modified_base 2,4,6,8,10,13,14,16,18 /mod_base = “2′-deoxy-2′-fluoro corresponding nucleoside”; modified_base 3,5,7,9,11,12,15,17,19 /mod_base = “2′-O-methyl corresponding nucleoside”; modified_base 2,21 /mod_base = “5′-phosphorothioate corresponding nucleotide”; Hif2alpha RNAi agent sense strand; modified_base 1,3,5,8,9,11,13,15,17,19 /mod_base = “2′-deoxy-2′-fluoro corresponding nucleoside”; modified_base 2,4,6,7,10,12,14,16,18 /mod_base = “2′-O-methyl corresponding nucleoside”; modified_base 20 /mod_base = “3′-3′-linked nucleotide”; modified_base 1 /)
Relative Expression day 4 (Hif2α mRNA in kidney tumor) (RNAi trigger 100 μg, polymer 100A 250 μg): 0.234

AD03257 (antisense UUUCAUGAAAUCGUUACGUUG; sense ACGUAACGAUUUCAUGAAAT; Hif2alpha RNAi agent antisense strand; modified_base 2,8,10,14 /mod_base = “2′-deoxy-2′-fluoro corresponding nucleoside”; modified_base 1,3,4,5,6,7,9,11,12,13,15,16,17,18,19,20,21 /mod_base = “2′-O-methyl corresponding nucleoside”; modified_base 2,3,20,21 /mod_base = “5′-phosphorothioate corresponding nucleotide”; Hif2alpha RNAi agent sense strand; modified_base 7,8,9 /mod_base = “2′-deoxy-2′-fluoro corresponding nucleoside”; modified_base 1,2,3,4,5,6,10,11,12,13,14,15,16,17,18,19 /mod_base = “2′-O-methyl corresponding nucleoside”; modified_base 20 /mod_base = “3′-3′-linked nucleotide”; modi)
Relative Expression day 4 (Hif2α mRNA in kidney tumor) [2]: 0.203

AD01885 (antisense UUUCAUGAAAUCGUUACGUTT; sense UAUACGUAACGAUUUCAUGAAAT; Hif2alpha RNAi agent antisense strand; modified_base 2,4,6,8,10,14,16,18 /mod_base = “2′-deoxy-2′-fluoro corresponding nucleoside”; modified_base 1,3,5,7,9,11,12,13,15,17,19 /mod_base = “2′-O-methyl corresponding nucleoside”; modified_base 2,3,21 /mod_base = “5′-phosphorothioate corresponding nucleotide”; Hif2alpha RNAi agent sense strand; modified_base 2 modified base = “2′-hydroxy corresponding nucleoside”; modified_base 4,6,8,10,11,12,14,16,18,20,22 /mod_base = “2′-deoxy-2′-fluoro corresponding nucleoside”; modified_base 1,3,5,7,9,13,15,17,19,21 /mod_base = “2′-O-methyl corresponding nucl)
Relative Expression day 4 (Hif2α mRNA in kidney tumor) (RNAi trigger 100 μg, polymer 064 250 μg): 0.146

AD01022 (antisense TGUAAAACAAUUGUGUACUTT; sense AGUACACAAUUGUUUUACAT; Hif2alpha RNAi agent antisense strand; modified_base 2,4,6,8,10,12,14,16,18 /mod_base = “2′-deoxy-2′-fluoro corresponding nucleoside”; modified_base 3,5,7,9,11,13,15,17,19 /mod_base = “2′-O-methyl corresponding nucleoside”; modified_base 21 /mod_base = “5′-phosphorothioate corresponding nucleotide”; Hif2alpha RNAi agent sense strand; modified_base 1,3,5,7,9,11,13,15,17,19 /mod_base = “2′-deoxy-2′-fluoro corresponding nucleoside”; modified_base 2,4,6,8,10,12,14,16,18 /mod_base = “2′-O-methyl corresponding nucleoside”; modified_base 20 /mod_base = “3′-3′-linked nucleotide”; modified_base 1 /mo)
Relative Expression day 4 (Hif2α mRNA in kidney tumor) [1]: 0.53

AD02691 (antisense UUUCAUGAAAUCGUUACGUUG; sense ACGUAACGAUUUCAUGAAAT; Hif2alpha RNAi agent antisense strand; modified_base 2,4,6,8,10,14,16,18 /mod_base = “2′-deoxy-2′-fluoro corresponding nucleoside”; modified_base 1,3,5,7,9,11,12,13,15,17,19,20,21 /mod_base = “2′-O-methyl corresponding nucleoside”; modified_base 2,3,20,21 /mod_base = “5′-phosphorothioate corresponding nucleotide”; Hif2alpha RNAi agent sense strand; modified_base 1,3,5,7,8,9,11,13,15,17 /mod_base = “2′-deoxy-2′-fluoro corresponding nucleoside”; modified_base 2,4,6,10,12,14,16,18,19 /mod_base = “2′-O-methyl corresponding nucleoside”; modified_base 20 /mod_base = “3′-3′-linked nucleotide”; modi)
Relative Expression day 4 (Hif2α mRNA in kidney tumor) (RNAi trigger 75 μg, polymer 064 187.5 μg): 0.124
